ChEMBL document CHEMBL1201862, “PubChem BioAssay data set” (2004)
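Cultured in 96-well plates, cells were exposed to test compound for 48 hours across five concentrations. GI50 = concentration required for 50% inhibition of growth.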 Activity calls are given as the source filed them. Rule as the data show it: active = GI50 up to about 1.1 µM and inactive = higher.

What was measured:
Assay in all cases: DTP human tumour cell line panel, 48 h
SNB-75 = system: SNB-75
MOLT-4 = system: MOLT-4
SF-268 = system: SF-268
HOP-92 = system: HOP-92
LOX IMVI = system: LOX IMVI
SN12C = system: SN12C
SK-MEL-5 = system: SK-MEL-5
OVCAR-5 = system: OVCAR-5
SW-620 = system: SW-620
LXFL 529 = system: LXFL 529
KM12 = system: KM12
NCI-H460 = system: NCI-H460
IGROV-1 = system: IGROV-1
SNB-19 = system: SNB-19
HCC 2998 = system: HCC 2998
OVCAR-8 = system: OVCAR-8
OVCAR-3 = system: OVCAR-3

Measured: GI50

CN(O)C(=O)c1ccccc1
inactive: SNB-75 > 100 µM | MOLT-4 > 100 µM | SF-268 > 100 µM | HOP-92 > 100 µM | LOX IMVI > 100 µM | SN12C > 100 µM | SK-MEL-5 > 100 µM | OVCAR-5 > 100 µM | SW-620 > 100 µM | LXFL 529 > 100 µM | KM12 > 100 µM | NCI-H460 > 100 µM | IGROV-1 > 100 µM | SNB-19 > 100 µM | HCC 2998 > 100 µM | OVCAR-8 > 100 µM | OVCAR-3 > 100 µM

OCCN1CCN(CC/C=C2/c3ccccc3Sc3ccc(Cl)cc32)CC1
inactive: SNB-75 3.69 µM | MOLT-4 11.4 µM | SF-268 14.6 µM | HOP-92 8.45 µM | LOX IMVI 8.81 µM | SN12C 13.2 µM | SK-MEL-5 5.89 µM | OVCAR-5 17.1 µM | SW-620 12 µM | LXFL 529 5.74 µM | KM12 9.57 µM | NCI-H460 5.93 µM | IGROV-1 15.2 µM | SNB-19 20.7 µM | HCC 2998 11.3 µM | OVCAR-3 14.7 µM

CCOC(=O)c1sc(Nc2cc(Cl)ccc2Cl)nc1C
inactive: SNB-75 15.6 µM | MOLT-4 29.6 µM | SF-268 > 100 µM | HOP-92 22.6 µM | LOX IMVI > 100 µM | SN12C 61.9 µM | OVCAR-5 37.3 µM | SW-620 > 100 µM | LXFL 529 91.4 µM | KM12 > 100 µM | NCI-H460 > 100 µM | IGROV-1 73.1 µM | SNB-19 > 100 µM | HCC 2998 > 100 µM | OVCAR-8 96.4 µM | OVCAR-3 84.1 µM

CCCCc1c2c(nc3c1CCCC3=O)C(=O)CCC2
inactive: SNB-75 62.4 µM | MOLT-4 > 100 µM | SF-268 > 100 µM | HOP-92 > 100 µM | LOX IMVI > 100 µM | SN12C > 100 µM | SK-MEL-5 > 100 µM | OVCAR-5 > 100 µM | SW-620 > 100 µM | LXFL 529 > 100 µM | KM12 > 100 µM | NCI-H460 > 100 µM | IGROV-1 > 100 µM | SNB-19 > 100 µM | HCC 2998 > 100 µM | OVCAR-8 > 100 µM | OVCAR-3 > 100 µM

Cc1ccc(C)c(N2C(=O)C(=O)C(c3nc4ccccc4o3)/C(=N\NC(=O)c3ccccc3O)C2=O)c1 (stereo not drawn)
inactive: SNB-75 5.7 µM | MOLT-4 12.8 µM | SF-268 12.2 µM | HOP-92 41.7 µM | LOX IMVI 32.4 µM | SN12C 26.2 µM | SK-MEL-5 38.5 µM | OVCAR-5 58.3 µM | SW-620 29.6 µM | LXFL 529 31.8 µM | IGROV-1 6.52 µM | SNB-19 12.3 µM | HCC 2998 67.3 µM | OVCAR-8 19.8 µM | OVCAR-3 16.6 µM

Cc1cc(N(CCC#N)CCC#N)ccc1/C=C1/N=C(c2ccccc2)N(N)C1=O
inactive: SNB-75 21.1 µM | MOLT-4 > 100 µM | SF-268 60.1 µM | HOP-92 30 µM | LOX IMVI 49.3 µM | SN12C > 100 µM | SK-MEL-5 > 100 µM | OVCAR-5 > 100 µM | SW-620 85.5 µM | LXFL 529 > 100 µM | KM12 > 100 µM | IGROV-1 79.8 µM | SNB-19 31.1 µM | HCC 2998 > 100 µM | OVCAR-8 > 100 µM | OVCAR-3 > 100 µM

CCN(CC)CCCNC(=O)C1COc2cc(-c3cc(=O)c4ccccc4o3)ccc2O1 (stereo not drawn)
inactive: SNB-75 45.9 µM | MOLT-4 33.4 µM | SF-268 42.9 µM | HOP-92 > 100 µM | LOX IMVI 23.6 µM | SN12C 45.6 µM | SK-MEL-5 19.7 µM | OVCAR-5 81.7 µM | SW-620 48.5 µM | LXFL 529 53 µM | NCI-H460 > 100 µM | IGROV-1 68.1 µM | SNB-19 > 100 µM | HCC 2998 42.2 µM | OVCAR-8 53.7 µM | OVCAR-3 93.5 µM

O=C(O)/C(Cl)=C(\Cl)C(=O)c1ccccc1
inactive: SNB-75 > 100 µM | MOLT-4 > 100 µM | SF-268 > 100 µM | HOP-92 > 100 µM | LOX IMVI > 100 µM | SN12C > 100 µM | SK-MEL-5 > 100 µM | OVCAR-5 > 100 µM | SW-620 > 100 µM | LXFL 529 > 100 µM | KM12 > 100 µM | NCI-H460 > 100 µM | IGROV-1 > 100 µM | SNB-19 > 100 µM | HCC 2998 > 100 µM | OVCAR-8 > 100 µM | OVCAR-3 > 100 µM

CC(=O)c1cc([N+](=O)[O-])ccc1OCC(=O)O
inactive: SNB-75 > 100 µM | MOLT-4 > 100 µM | SF-268 > 100 µM | HOP-92 > 100 µM | LOX IMVI > 100 µM | SN12C > 100 µM | SK-MEL-5 > 100 µM | OVCAR-5 > 100 µM | SW-620 > 100 µM | LXFL 529 > 100 µM | KM12 > 100 µM | NCI-H460 > 100 µM | IGROV-1 > 100 µM | SNB-19 > 100 µM | HCC 2998 > 100 µM | OVCAR-8 > 100 µM | OVCAR-3 > 100 µM

O=C1OC(c2ccccc2)(c2ccccc2)c2ccc3ccc(F)cc3c21
inactive: SNB-75 37.6 µM | MOLT-4 > 100 µM | SF-268 > 100 µM | HOP-92 2.66 µM | LOX IMVI 60.3 µM | SN12C > 100 µM | SK-MEL-5 20 µM | OVCAR-5 > 100 µM | SW-620 23.9 µM | LXFL 529 > 100 µM | KM12 > 100 µM | NCI-H460 > 100 µM | IGROV-1 > 100 µM | SNB-19 > 100 µM | HCC 2998 37.2 µM | OVCAR-8 > 100 µM | OVCAR-3 68.7 µM

CC(C)(C)OC(=O)NC(Cc1ccccc1)C(=S)N1CCCC1 (stereo not drawn)
inactive: SNB-75 55.5 µM | MOLT-4 42.6 µM | SF-268 > 100 µM | HOP-92 31.7 µM | LOX IMVI > 87.9 µM | SN12C > 100 µM | SK-MEL-5 57 µM | OVCAR-5 > 100 µM | SW-620 > 100 µM | LXFL 529 > 90.4 µM | KM12 > 100 µM | NCI-H460 > 93.8 µM | IGROV-1 > 100 µM | SNB-19 > 100 µM | HCC 2998 > 100 µM | OVCAR-8 > 100 µM | OVCAR-3 > 100 µM

C=C(C=O)[C@@H]1C2OC(=O)C(=C)[C@@H]2CC(O)[C@@]1(C)CC (stereo partly drawn)
inactive: SNB-75 > 100 µM | MOLT-4 2.48 µM | SF-268 23.8 µM | HOP-92 2.33 µM | LOX IMVI 15.8 µM | SN12C 10.1 µM | SK-MEL-5 6.78 µM | OVCAR-5 17.8 µM | SW-620 3.16 µM | LXFL 529 3.08 µM | KM12 13.1 µM | NCI-H460 21.2 µM | IGROV-1 10.7 µM | SNB-19 45.2 µM | HCC 2998 16.6 µM | OVCAR-8 4.37 µM | OVCAR-3 6.71 µM
